Values of other authors in patent publication US10332616B2, “Movable type method applied to protein-ligand binding” (University of Florida Research Foundation, Inc., priority 2013, dated 2019).

conditions: aqueous solvation free energy, charged compounds (ions)

| Structure (SMILES) | Exp. ΔGsolv [kcal/mol] |
| --- | --- |
| Nc1cccc(Cl)c1 [i125, 3-chloroaniline, reference compound] | -74.70 |
| CC(=O)C(=O)O [i063, pyruvicacid, reference compound] | -68.50 |
| N [i047, ammonia, reference compound] | -85.20 |
| O=C(O)c1ccccc1 [i064, benzoicacid, reference compound] | -71.20 |
| CN [i003, methylamine, reference compound] | -76.40 |
| O=C(O)C(F)(F)F [i118, trifluoroaceticacid, reference compound] | -59.30 |

same assay, conditions: experimental solvation free energy, neutral compounds test set

| Structure (SMILES) | Exp. ΔGsolv [kcal/mol] |
| --- | --- |
| O=c1[nH]c(=O)[nH]c(=O)[nH]1 [test2007] | -18.06 |
| O=c1cc(Cl)[nH]c(=O)[nH]1 [test2006] | -15.83 |
| CS [Compound 0136met] | -1.24 |
| C1CNCCN1 [Compound 0109pip] | -7.4 |
| COP(=O)(OC)C(O)C(Cl)(Cl)Cl (centres unmarked) [test1055] | -12.7 |
| C1CCOC1 [Compound 0061tet] | -3.47 |
| CCOc1ccccc1 [Compound 0246eth] | -2.22 |
| CN1CCOCC1 [Compound 0227Nme] | -6.34 |
| CCOC(C)OCC [test0009] | -3.28 |
| Nc1ccc(Nc2ccccc2)c2c1C(=O)c1ccccc1C2=O [test1059] | -7.4 |
| CCSCC [Compound 0142die] | -1.43 |
| CNC(=O)Oc1cccc2c1OC(C)(C)C2 [test1016] | -9.6 |
| c1ccsc1 [Compound 0245thi] | -1.42 |
| CCC(C)n1c(=O)[nH]c(C)c(Br)c1=O (centres unmarked) [test1013] | -9.7 |
| CC(=O)Oc1ccccc1C(=O)O [test2001] | -9.94 |
| CCCCCCCO [Compound 0058hep] | -4.24 |
| CCC(=O)O [Compound 0087pro] | -6.47 |
| CCCS [Compound 0138pro] | -1.05 |
| COC(=O)c1ccccc1S(=O)(=O)NC(=O)Nc1nc(C)nc(OC)n1 [test1039] | -15.5 |
| CCCN(CCC)c1c([N+](=O)[O-])cc(S(C)(=O)=O)cc1[N+](=O)[O-] [test1040] | -8 |

| Structure (SMILES) | Exp. ΔGsolv [kcal/mol] |
| --- | --- |
| CCOP(=S)(OCC)Oc1ccc([N+](=O)[O-])cc1 [test1043] | -6.7 |
| Cc1cccc(O)c1 [Compound 0056mcr] | -5.49 |
| Cn1c(=O)c2c(ncn2C)n(C)c1=O [test2004] | -12.64 |
| CCOc1ccc(NC(C)=O)cc1 [test3005] | -10.91 |
| COC(OC)(OC)C(F)(F)F [test2029] | -0.8 |
| CNC(C)=O [Compound 0235ZNmb] | -10 |
| CNC(C)=O [Compound 0234ENmb] | -10 |
| CCC(=O)OC [Compound 0094met] | -2.93 |
| CNC(=O)Oc1cccc2ccccc12 [test1015] | -9.5 |
| CC(O)C(F)(F)F (centres unmarked) [Compound 0211tri] | -4.16 |
| CC(C(=O)O)c1ccc(-c2ccccc2)c(F)c1 (centres unmarked) [test2013] | -8.42 |
| FC1(F)C(F)(F)C(F)(F)C1(F)F [test2023] | 3.43 |
| CNC(=O)O/N=C/C(C)(C)SC [test1008] | -9.8 |
| CCCCCCCC(=O)OC [Compound 0238met] | -2.04 |
| CCOCCOCC [test0014] | -3.54 |
| CCOP(=O)(OCC)OCC [Compound 0221tri] | -7.8 |
| ClC1=C(Cl)C2(Cl)C3C4CC(C5OC45)C3C1(Cl)C2(Cl)Cl (centres unmarked) [test1030] | -5.5 |
| CN(C)C(=O)Nc1ccccc1 [Compound 0401amia] | -9.63 |
| Clc1c(Cl)c(Cl)c(Cl)c(Cl)c1Cl [test2015] | -2.33 |
| CNC [Compound 0104dim] | -4.29 |

| Structure (SMILES) | Exp. ΔGsolv [kcal/mol] |
| --- | --- |
| COC(=O)c1ccccc1 [Compound 0240met] | -3.91 |
| Cc1ccccc1N [n009] | -5.56 |
| COCOC [test0012] | -2.93 |
| CCOP(=O)(OCC)O/C(=C\Cl)c1ccc(Cl)cc1Cl [test1019] | -7.1 |
| C=CCO [Compound 0145pro] | -5.08 |
| CCCCN [Compound 0110but] | -4.29 |
| CCOP(=S)(OCC)SC(CCl)N1C(=O)c2ccccc2C1=O (centres unmarked) [test1023] | -5.7 |
| C=COCC(F)(F)F [Compound 0214tri] | -0.12 |
| C1CCNC1 [Compound 0108pyr] | -5.48 |
| CCSSCC [Compound 0223die] | -1.63 |
| CCCCCC(=O)O [Compound 0090hex] | -6.21 |
| CCO [Compound 0045eth] | -5.01 |
| O=C(O)CCC(=O)c1ccc(-c2ccccc2)cc1 [test3003] | -12.75 |
| CCCCCN [Compound 0113pen] | -4.1 |
| O=Cc1ccccc1 [Compound 0074ben] | -4.02 |
| CCCSC(=O)N(CCC)CCC [test1057] | -4.1 |
| OCC(F)(F)F [Compound 0207tri] | -4.31 |
| CCNc1nc(Cl)nc(NCC)n1 [test1050] | -10.2 |
| CSC [Compound 0140dim] | -1.54 |

same assay, conditions: experimental solvation free energy; test set with 372 neutral compounds

| Structure (SMILES) | Exp. ΔGsolv [kcal/mol] |
| --- | --- |
| CCOP(=S)(OCC)Oc1nc(Cl)c(Cl)cc1Cl [test1022] | -5 |
| ClC(Cl)(Cl)Br [Compound 0423brt] | -0.93 |
| CCNc1nc(NC(C)(C)C)nc(SC)n1 [test1053] | -6.7 |
| C [Compound 0001met] | 2 |
| NC(=S)c1c(Cl)cccc1Cl [Compound 0427dcl] | -10.81 |
| Cc1ccc(Br)cc1 [Compound 0420pbr] | -1.39 |
| FC(F)(F)C(F)(F)Cl [Compound 0424clp] | 2.86 |
| Cc1cccc(C)n1 [Compound 0125dim] | -4.6 |
| FC(F)(F)F [Compound 0200tet] | 3.16 |
| ClC(Cl)=C(Cl)Cl [Compound 0204tet] | 0.05 |
| CC[N+](=O)[O-] [Compound 0130nit] | -3.71 |
| FC(Cl)(Cl)Cl [Compound 0422ftc] | 0.82 |
| c1c[nH]cn1 [test0017] | -9.81 |
| C1=CCCC1 [Compound 0026cyc] | 0.56 |
| C=CC [Compound 0022pro] | 1.27 |
| Clc1ccccc1Cl [Compound 0175odi] | -1.36 |
| CCC[N+](=O)[O-] [Compound 0131nit] | -3.34 |
| CCCl [Compound 0163chl] | -0.63 |
| COP(=S)(OC)Oc1cc(Cl)c(Br)cc1Cl [Compound 0445pho] | -5.7 |
| C=CCl [Compound 0169chl] | -0.59 |
| C#C [Compound 0030eth] | -0.01 |
| CCCC[N+](=O)[O-] [Compound 0133nit] | -3.08 |
| Cc1cnccn1 [Compound 0117met] | -5.57 |
| CC(C)CC(C)C [Compound 0013dim] | 2.88 |
| Cc1ccccc1C [Compound 0038oxy] | -0.9 |

| Structure (SMILES) | Exp. ΔGsolv [kcal/mol] |
| --- | --- |
| FC(F)(Cl)Cl [Compound 0421dfl] | 1.69 |
| ClC=C(Cl)Cl [Compound 0173tri] | -0.39 |
| CCCCl [Compound 0167chla] | -0.27 |
| FC(F)(F)CCl [Compound 0205chl] | 0.06 |
| CCOP(=S)(OCC)SCSc1ccc(Cl)cc1 [test1017] | -6.5 |
| CCNc1nc(NC(C)C)nc(SC)n1 [test1009] | -7.7 |
| CC(C)(C)C [Compound 0011dim] | 2.5 |
| FC(Br)C(F)(F)F (centres unmarked) [Compound 0203bro] | 0.52 |
| CCCC(C)C [Compound 0012met] | 2.52 |
| Brc1ccccc1 [Compound 0186bro] | -1.46 |
| FC(F)(F)C(Cl)Br (centres unmarked) [Compound 0201bro] | -0.13 |
| O=C1CCCC1 [Compound 0077cyc] | -4.68 |
| c1ccccc1 [Compound 0035ben] | -0.87 |
| ClCC(Cl)(Cl)Cl [Compound 0407tet] | -1.15 |
| CCBr [Compound 0180bro] | -0.7 |
| CC(C)Br [Compound 0183bro] | -0.48 |
| C1CC1 [Compound 0016cyc] | 0.75 |
| C/C=C/CC [Compound 0028Epe] | 1.34 |
| CC(=O)c1ccccc1 [Compound 0084met] | -4.58 |
| ClCCl [Compound 0161dic] | -1.36 |
| ClC(Cl)Cl [Compound 0162tri] | -1.07 |
| CCCCCBr [Compound 0185bro] | -0.08 |
| CC(F)F [Compound 0154dif] | -0.11 |
| CC(=O)C(C)(C)C [Compound 0081dim] | -2.89 |

same assay, conditions: neutral molecule

| Structure (SMILES) | ΔGsol experimental value [kcal/mol] |
| --- | --- |
| COO [methylperoxide, reference compound] | -5.28 |
| CCOOCC [ethylperoxide, reference compound] | -5.32 |
